Reference: ChEMBL document CHEMBL1201862, “PubChem BioAssay data set” (2004)
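Exposure lasted 48 hours, with cells grown in 96-well plates and compounds tested at five concentrations. Here, GI50 denotes the concentration required for 50% inhibition of growth.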 Calls of active or inactive are those of the source. No stated cut-off is given here; in the data, active = GI50 up to about 1.1 µM and inactive = higher.

Assays:
Experiment in all cases: NCI tumour cell line growth inhibition, 48 h
OVCAR-4 = tested on: OVCAR-4
HOP-62 = tested on: HOP-62
IGROV-1 = tested on: IGROV-1
U-251 = tested on: U-251
UO-31 = tested on: UO-31
HOP-92 = tested on: HOP-92
COLO 205 = tested on: COLO 205
ACHN = tested on: ACHN
SK-MEL-28 = tested on: SK-MEL-28
UACC-62 = tested on: UACC-62
MDA-MB-231 = tested on: MDA-MB-231
NCI-H226 = tested on: NCI-H226
SF-295 = tested on: SF-295
HL-60 = tested on: HL-60
M14 = tested on: M14
SK-MEL-5 = tested on: SK-MEL-5
NCI-H23 = tested on: NCI-H23
SNB-75 = tested on: SNB-75
LOX IMVI = tested on: LOX IMVI
MDA-MB-435 = tested on: MDA-MB-435

Row | Structure (SMILES) | GI50 (OVCAR-4) | GI50 (HOP-62) | GI50 (IGROV-1) | GI50 (U-251) | GI50 (UO-31) | GI50 (HOP-92) | GI50 (COLO 205) | GI50 (ACHN) | GI50 (SK-MEL-28) | GI50 (UACC-62) | GI50 (MDA-MB-231) | GI50 (NCI-H226) | GI50 (SF-295) | GI50 (HL-60) | GI50 (M14) | GI50 (SK-MEL-5) | GI50 (NCI-H23) | GI50 (SNB-75) | GI50 (LOX IMVI) | GI50 (MDA-MB-435)
1 | S=C1NCN2CCN(CC2)CNC(=S)C(=S)NCN2CCN(CC2)CNC1=S | > 100 µM (inactive) | 37.9 µM (inactive) | 64.3 µM (inactive) | 37.7 µM (inactive) | 25.6 µM (inactive) | 62.1 µM (inactive) | 35.6 µM (inactive) | 72.1 µM (inactive) | > 100 µM (inactive) | 67.8 µM (inactive) | > 100 µM (inactive) | > 100 µM (inactive) | > 100 µM (inactive) | 24.2 µM (inactive) | 30.1 µM (inactive) | 39.5 µM (inactive) | 43 µM (inactive) | > 100 µM (inactive) | 22.3 µM (inactive) | 39.8 µM (inactive)
2 | Oc1ccccc1-n1nc2ccc3nonc3c2n1 | > 100 µM (inactive) | 90.2 µM (inactive) | > 100 µM (inactive) | > 100 µM (inactive) | 77.4 µM (inactive) | > 100 µM (inactive) | > 100 µM (inactive) | > 100 µM (inactive) | > 100 µM (inactive) | > 100 µM (inactive) | > 100 µM (inactive) | > 100 µM (inactive) | > 100 µM (inactive) | > 100 µM (inactive) | > 100 µM (inactive) | > 100 µM (inactive) | > 100 µM (inactive) | > 100 µM (inactive) | > 100 µM (inactive) | > 100 µM (inactive)
3 | C/N=C(N)/N=C(\N)Nc1cc2ccccc2c2ccccc12 | 14.7 µM (inactive) | 17.5 µM (inactive) | 17.9 µM (inactive) | 15.2 µM (inactive) | 11.9 µM (inactive) | 14.9 µM (inactive) | 13.7 µM (inactive) | 13.5 µM (inactive) | 17.8 µM (inactive) | 14.9 µM (inactive) | 13.3 µM (inactive) | 20.7 µM (inactive) | 17.1 µM (inactive) | 4.06 µM (inactive) | 17 µM (inactive) | 16.5 µM (inactive) | 17.1 µM (inactive) | 13 µM (inactive) | 13 µM (inactive) | 15.9 µM (inactive)
4 | CC(=O)NNc1nc(C)c(C(=O)/C=C/C=C/c2ccccc2)s1 | > 100 µM (inactive) | 80.4 µM (inactive) | 33.7 µM (inactive) | 71.9 µM (inactive) | > 100 µM (inactive) | > 100 µM (inactive) | > 100 µM (inactive) | > 100 µM (inactive) | > 100 µM (inactive) | > 100 µM (inactive) | 65.5 µM (inactive) | > 100 µM (inactive) | > 100 µM (inactive) | 44.4 µM (inactive) | 48.9 µM (inactive) | > 100 µM (inactive) | > 100 µM (inactive) | > 100 µM (inactive) | > 100 µM (inactive) | > 100 µM (inactive)
5 | Nc1nc(Cl)c(N)c(NCC2(CO)CC(Cc3ccccc3)C2)n1 (stereo not given) | 48.1 µM (inactive) | > 49.3 µM (inactive) | > 78.5 µM (inactive) | 14.6 µM (inactive) | > 100 µM (inactive) | > 77.3 µM (inactive) | 34.9 µM (inactive) | 97.9 µM (inactive) | > 100 µM (inactive) | > 76.9 µM (inactive) | 61.4 µM (inactive) | > 31.8 µM (inactive) | > 100 µM (inactive) | 4.8 µM (inactive) | 55.2 µM (inactive) | 0.0766 µM (active) | 0.865 µM (active) | > 85.3 µM (inactive) | 2.42 µM (inactive) | 16.6 µM (inactive)
6 | O[C@@H]1C=C[C@]23CCN(Cc4cc5c(cc42)OCO5)[C@@H]3C1 | 34 µM (inactive) | 92 µM (inactive) | 44.3 µM (inactive) | 41.2 µM (inactive) | 48.2 µM (inactive) | 65.6 µM (inactive) | 44.8 µM (inactive) | 35.2 µM (inactive) | > 100 µM (inactive) | > 100 µM (inactive) | 58.2 µM (inactive) | > 100 µM (inactive) | 40 µM (inactive) | > 100 µM (inactive) | > 100 µM (inactive) | > 100 µM (inactive) | > 100 µM (inactive) | 20.5 µM (inactive) | 48.4 µM (inactive) | 57 µM (inactive)
7 | C[N+](C)(C)CC1CCCCCCCCCCC1=O (stereo not given) | > 100 µM (inactive) | 39.4 µM (inactive) | > 100 µM (inactive) | > 100 µM (inactive) | > 100 µM (inactive) | > 100 µM (inactive) | > 100 µM (inactive) | > 100 µM (inactive) | > 100 µM (inactive) | > 100 µM (inactive) | > 100 µM (inactive) | > 100 µM (inactive) | > 100 µM (inactive) | > 100 µM (inactive) | > 100 µM (inactive) | > 100 µM (inactive) | > 100 µM (inactive) | > 100 µM (inactive) | > 100 µM (inactive) | > 100 µM (inactive)
8 | Cc1cc(C)c(C2=NOC(c3ccccc3)(c3cc(=O)n(-c4ccccc4)s3)O2)c(C)c1 (stereo not given) | 53.1 µM (inactive) | 33.2 µM (inactive) | 37.1 µM (inactive) | 24.7 µM (inactive) | 20.8 µM (inactive) | 23.2 µM (inactive) | 23.6 µM (inactive) | 24.2 µM (inactive) | 32 µM (inactive) | 23.2 µM (inactive) | 30.8 µM (inactive) | 31.5 µM (inactive) | > 100 µM (inactive) | 22.1 µM (inactive) | 27 µM (inactive) | 74 µM (inactive) | 20.6 µM (inactive) | 26.5 µM (inactive) | 15.8 µM (inactive) | 48.3 µM (inactive)
9 | CC(=O)OC[C@@]1(C)[C@@H]2[C@@H]3[C@@]4(CO[C@]3(C)C(=O)[C@@]3(OC(C)=O)C[C@H](C)[C@H](OC(C)=O)[C@@H]3[C@H]4OC(C)=O)[C@H](OC(=O)c3ccccc3)C[C@@H]21 | > 100 µM (inactive) | > 100 µM (inactive) | > 100 µM (inactive) | > 100 µM (inactive) | 99.8 µM (inactive) | > 100 µM (inactive) | 49.8 µM (inactive) | > 100 µM (inactive) | > 100 µM (inactive) | > 100 µM (inactive) | > 100 µM (inactive) | > 100 µM (inactive) | 93.3 µM (inactive) | 63.8 µM (inactive) | 91.4 µM (inactive) | > 100 µM (inactive) | > 100 µM (inactive) | > 100 µM (inactive) | 79.6 µM (inactive) | > 100 µM (inactive)
10 | O=C1/C(=C/c2ccc(O)cc2)CCCC1CN1CCCCC1 (stereo not given) | 12.9 µM (inactive) | 15.7 µM (inactive) | 1.97 µM (inactive) | 7.91 µM (inactive) | 2.51 µM (inactive) | 1.78 µM (inactive) | 2.16 µM (inactive) | 1.73 µM (inactive) | 5.43 µM (inactive) | 1.83 µM (inactive) | 2.27 µM (inactive) | 7.14 µM (inactive) | 16.1 µM (inactive) | 0.483 µM (active) | 2.94 µM (inactive) | 6.01 µM (inactive) | 5.12 µM (inactive) | 8.63 µM (inactive) | 1.56 µM (inactive) | 7.28 µM (inactive)
11 | COc1cnc2cc(C(=O)O)c3c([N+](=O)[O-])cccc3c2c1 | > 100 µM (inactive) | > 100 µM (inactive) | > 100 µM (inactive) | > 100 µM (inactive) | > 100 µM (inactive) | > 100 µM (inactive) | > 100 µM (inactive) | > 100 µM (inactive) | > 100 µM (inactive) | > 100 µM (inactive) | > 100 µM (inactive) | > 100 µM (inactive) | > 100 µM (inactive) | > 100 µM (inactive) | > 100 µM (inactive) | > 100 µM (inactive) | > 100 µM (inactive) | > 100 µM (inactive) | > 100 µM (inactive) | > 100 µM (inactive)
12 | CC1(C)C(/C=N\O)=[N+]([O-])C(C)(C)N1O | > 100 µM (inactive) | > 100 µM (inactive) | > 100 µM (inactive) | > 100 µM (inactive) | > 100 µM (inactive) | > 100 µM (inactive) | > 100 µM (inactive) | > 100 µM (inactive) | > 100 µM (inactive) | > 100 µM (inactive) | > 100 µM (inactive) | > 100 µM (inactive) | > 100 µM (inactive) | 31.6 µM (inactive) | > 100 µM (inactive) | > 100 µM (inactive) | > 100 µM (inactive) | > 100 µM (inactive) | > 100 µM (inactive) | 25.2 µM (inactive)
13 | CC1(C)CC2=C(SC3C=CC=CC3N2)C(=O)C1C(=O)C(N)=O (stereo not given) | > 100 µM (inactive) | > 100 µM (inactive) | > 100 µM (inactive) | > 100 µM (inactive) | 54.5 µM (inactive) | > 100 µM (inactive) | > 100 µM (inactive) | > 100 µM (inactive) | > 100 µM (inactive) | > 100 µM (inactive) | > 100 µM (inactive) | 91 µM (inactive) | > 100 µM (inactive) | 44.1 µM (inactive) | > 100 µM (inactive) | > 100 µM (inactive) | > 100 µM (inactive) | > 100 µM (inactive) | > 100 µM (inactive) | > 100 µM (inactive)
14 | CN(C)C(Cc1c[nH]cn1)C(=O)N1CCCC1C(N)=O (stereo not given) | > 100 µM (inactive) | > 100 µM (inactive) | > 100 µM (inactive) | > 100 µM (inactive) | > 100 µM (inactive) | > 100 µM (inactive) | > 100 µM (inactive) | > 100 µM (inactive) | > 100 µM (inactive) | > 100 µM (inactive) | > 100 µM (inactive) | > 100 µM (inactive) | > 100 µM (inactive) | > 100 µM (inactive) | > 100 µM (inactive) | > 100 µM (inactive) | > 100 µM (inactive) | > 100 µM (inactive) | > 100 µM (inactive) | > 100 µM (inactive)
